Experimental data taken from patent US20220289791A1, “LACTATE DEHYDROGENASE INHIBITOR POLYPEPTIDES FOR USE IN THE TREATMENT OF CANCER” (UNIVERSITÉ CATHOLIQUE DE LOUVAIN, priority 2019, published 2022).
pKd: −log10 of the molar value. *1 amine or outer side, *2 acyl side, *3 side chain or, on linkers, in order; H or OH if unused. Where a SMILES comes first, the peptide text is derived from it. Bridges are numbered along the chain shown (N, C = ends). mXylylene = c1cc(C[*:1])cc(C[*:2])c1

Assays:
[1] = target: T1, LDHBtr (Homo sapiens, UniProt P07195); assay: NMR WaterLOGSY binding screening
Description: All experiments were acquired on a Bruker Ascend Avance III 600 MHz equipped with a broadband cryoprobe (Bruker® GmBH, Germany)
(§1) NMR WaterLOGSY was performed on samples prepared in 10% D2O buffer containing 50 mM sodium phosphate buffer, pH 7.6 and 100 mM NaCl. The concentration of LDH subunits was 15-20 μM. Ligand binding was detected using a NMR WaterLOGSY ephogsygpno.2 advance-version sequence with a […]. Water signal suppression was achieved using excitation sculpting scheme and a 50 ms spinlock was used to suppress protein background signal. For each experiment, 512 scans were collected to yield a 16K points FID. NMR WaterLOGSY intensity was corrected by plotting the intensity difference of the ligand NMR WaterLOGSY spectra recorded in the presence and absence of protein.
For NMR WaterLOGSY screening experiments a correction factor was applied to account for slight concentration variation between samples. To do so, 8 scans 1H NMR spectra with 50 ms spinlock were recorded before NMR WaterLOGSY experiments. The intensity ratio of the aliphatic region (0.700 ppm to 0.955 ppm) with and without protein was used as a correction factor to compare the NMR WaterLOGSY intensity of the polypeptides of interest with and without LDH subunits. An arbitrary threshold of 0.1, corresponding to a 10% decrease in the NMR WaterLOGSY signal intensity between the spectra with and without protein, was set to discriminate between binders and non-binders.

[2] = target: T1, LDHBtr; assay: Microscale thermophoresis (MST), Example 1; assay type: binding
Description: (§2) MST measurements were performed on a Nanotemper Monolith NT.115 instrument (Nanotemper Technologies®, GmbH) using Red-dye-NHS fluorescent labeling. Each LDH (WT or truncated) sample, purified to homogeneity, was labeled with the Monolith RED-NHS 2nd generation labeling dye according to the supplied protocol (Nanotemper Technologies®, GmbH). Measurements were performed in 50 mM Na-Phosphate pH 7.6 and 100 mM NaCl containing 0.05% Tween-20 in premium treated capillaries (Nanotemper Technologies®, GmbH). The final concentrations of either labeled protein in the assay were 100 nM. The ligands (NADH and peptides) were titrated in 1:1 dilutions following manufacturer's recommendations. All binding reactions were incubated 5′ at room temperature after loading into capillaries. Experiments were performed in triplicates using 40% LED power and medium MST power, LaserOn time was 20 sec, Laser Off time 3 sec. Linear octapeptides were evaluated for their thermophoretic pattern.

[3] = target: T2, rabbit LDHA (LDH-M) (Oryctolagus cuniculus, UniProt P13491); assay: Intrinsic fluorescence assay: recovery of tryptophan fluorescence after acidic dissociation, Example 1; assay type: biochemical; conditions: pre-dissociation at pH 5.0, neutralization; LT018 50 μM, LB8 up to 100 μM
T2 construct: purchased Sigma-Aldrich
Description: Following described procedure; rabbit LDHA commercial solution in an ammonium sulfate suspension in (pH-7.0, 3.2 M) was first diluted to 1 mg/ml in a solution of NaCl 200 mM and then dialyzed at 4° C. 2×2 h against 200 mM NaCl. The stock solution of 1 mg/ml was then diluted to 30 μg/ml in NaCl 200 mM to give the assay solution.
Assay solution was mixed 1:1 with either an acetate-chloride buffer (20 mM Acetic acid/Acetate, 180 mM NaCl, pH 5.0) or phosphate buffer (250 mM phosphate pH 7.6). After storage at 4° C. for 30′, samples were removed and diluted 1:1,250 mM phosphate buffer (pH 7.6) to yield a 7.5 μg/ml final concentration of re-associating LDH-M.
Samples of the resulting solutions were then subjected to kinetic experiments of the recovery of intrinsic fluorescence (Exc=286 nm, Em=350 nm, 10′, rt). Full tryptophan fluorescence spectra were afterward recorded (Exc=286 nm, Em=320-400 nm, rt).
To confirm this hypothesis, experiments were therefore designed to follow the recovery of the LDH tetrameric form after a pre-dissociation initiated in slightly acidic conditions. Briefly, six tryptophan residues are found in the LDH structure, three of them being located at the dimer-dimer interface. As the tryptophan quantum yield decreases in polar environment, dimeric LDHs show very weak tryptophan fluorescence compared to tetrameric one. […] The recovery of fluorescence upon pH neutralization is therefore a direct measure of the tetramer re-association.

[4] = target: T3, rabbit LDH5 (rLDH5) (Oryctolagus cuniculus, UniProt P13491); assay: Denaturation assay: rLDH5 fluorescence recovery after acidic exposure; assay type: biochemical; conditions: 200 nM rLDH5, 50 μM peptide, pH 5 then neutral pH
T3 construct: purchased Sigma-Aldrich
Description: Rabbit LDHA commercial solution (Sigma-Aldrich®) in an ammonium sulfate suspension (pH-7, 3.2 M) was first diluted to 1 mg/ml in a solution of NaCl 200 mM and then dialyzed at 4° C. 2×2 h against 200 mM NaCl. The stock solution of 1 mg/ml was then diluted to 30 μg/ml (800 nM) in NaCl 20 0 mM to give the assay solution. Assay solution was mixed 1:1 with acetate-chloride buffer (20 mM Acetic acid/Acetate, 180 mM NaCl, 1 mM DTT pH 5) and stored on ice for 30 minutes. Samples were then removed from ice and let warm up for 2 minutes. The acidic solution was then diluted 1:1 with a 250 mM phosphate buffer (pH 7.6) containing or not the inhibitory peptide to yield a 7.5 μg/ml (200 nM) final concentration of re-associating LDHA. Samples of the resulting solutions were then subjected to kinetic experiments of the recovery of intrinsic fluorescence (Exc=286 nm, Em=350 nm, 10′, rt).
An experiment was thus designed to follow the recovery of LDH tetramers after a dissociation step initiated by acidic conditions. […] Monitoring of the rLDH5 tetrameric state was performed by following its intrinsic tryptophan fluorescence: 6 tryptophan residues can be found in each rLDHA monomer, three of them being located at the dimer-dimer interface. As the tryptophan quantum yield decreases in a polar environment, dimeric LDHs show very weak tryptophan fluorescence compared to the tetrameric form. […] Such decay can be compared to the difference in tryptophan fluorescence between tetrameric LDH1 and dimeric LDHBtr.

[5] = target: full length LDH1 enzyme (Homo sapiens, UniProt P07195); assay: Biochemical/biophysical evaluation of interaction with full length tetrameric LDHB; assay type: binding
Description: as §1
as §2, with “The ligands (NADH and peptides) were titrated in 1:1 dilutions following manufacturer's recommendations. All binding reactions were incubated 5′ at room temperature after loading into capillaries. Experiments were performed in triplicates using 40% LED power and medium MST power, LaserOn time was 20 sec, Laser Off time 3 sec.” left out

[6] = target: tetrameric LDH1 (Homo sapiens, UniProt P07195); assay: Microscale thermophoresis (MST) on tetrameric LDH1; assay type: binding
Description: (§3) MST measurements were performed on a Nanotemper Monolith NT.115 instrument (NanoTemper Technologies®) using Red-dye-NHS fluorescent labeling. Each LDH sample, purified to homogeneity, was labeled with the Monolith Red-dye-NHS 2nd generation labeling dye (NanoTemper Technologies®), according to the manufacturer's instructions. Measurements were performed in 50 mM sodium phosphate, pH 7.6, and 100 mM NaCl containing 0.05% Tween-20 in premium-treated capillaries (NanoTemper Technologies®). The final concentrations of either labeled protein in the assay were 100 nM. The ligands (NADH and peptides) were titrated in 1:1 dilutions following manufacturer's recommendations. All binding reactions were incubated for 5 min at room temperature after loading into capillaries. Experiments were performed in triplicates using 40% LED power, medium MST power, Laser On time 20 s and Laser Off time 3 s. Peptides were evaluated for their thermophoretic pattern, and Kd's were extracted from raw data at a 10 to 20 s MST on time according to manufacturer's instructions. Regarding interaction of 7 with LDH5, Kd was extracted from the raw fluorescence. A denaturation test was performed accordingly to manufacturer recommendation and excluded any nonspecific spectral interaction between 7 and the red-dye. […]

[7] = target: T4, tetrameric LDH5 (Homo sapiens, UniProt P00338); assay: Microscale thermophoresis (MST) on tetrameric LDH5; assay type: binding
T4 construct: purchased Abnova
Description: as §3

[8] = target: human LDH1 (Homo sapiens, UniProt P07195); assay: nanoDSF thermal denaturation of LDH1; assay type: binding; conditions: nanoDSF
[9] = target: T5, human LDH5 (Homo sapiens, UniProt P00338); assay: nanoDSF thermal denaturation of LDH5; assay type: binding; conditions: nanoDSF
T5 construct: purchased Abnova

[10] = linear peptides at 800 μM, LDHBtr 15 μM

T1 sequence (P07195 21-334): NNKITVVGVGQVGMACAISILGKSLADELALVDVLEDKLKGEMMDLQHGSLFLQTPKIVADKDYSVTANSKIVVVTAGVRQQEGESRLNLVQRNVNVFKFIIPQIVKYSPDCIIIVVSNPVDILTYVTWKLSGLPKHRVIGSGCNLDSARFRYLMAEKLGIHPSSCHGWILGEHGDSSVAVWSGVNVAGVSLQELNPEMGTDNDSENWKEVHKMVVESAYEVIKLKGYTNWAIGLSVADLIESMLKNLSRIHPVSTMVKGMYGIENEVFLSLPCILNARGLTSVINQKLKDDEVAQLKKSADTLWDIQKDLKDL
full length LDH1 enzyme, sequence (P07195 whole entry): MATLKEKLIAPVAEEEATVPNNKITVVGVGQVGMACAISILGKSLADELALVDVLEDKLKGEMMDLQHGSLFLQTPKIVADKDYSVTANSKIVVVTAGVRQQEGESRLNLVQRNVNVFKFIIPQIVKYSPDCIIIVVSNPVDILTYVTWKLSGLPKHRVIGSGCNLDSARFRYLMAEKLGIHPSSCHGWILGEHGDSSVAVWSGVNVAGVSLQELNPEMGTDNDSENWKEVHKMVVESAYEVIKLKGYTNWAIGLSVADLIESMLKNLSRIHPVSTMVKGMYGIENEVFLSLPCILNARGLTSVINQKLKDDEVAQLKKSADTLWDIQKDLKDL
human LDH1, sequence (P07195 whole entry): as above
tetrameric LDH1, sequence (P07195 whole entry): as above

| Binding using WaterLOGSY (800 μM) [1, 10] | pKd ([2]; linear peptides, read-out: Kd using MST experiment) | recovery of fluorescence intensity after denaturation (LDH re-association) [3] | LDH5 fluorescence recovery after acidification [4] | NMR WaterLOGSY signal / saturation transfer [1] | Interaction with full length LDH1 / competition with LDHB native arm [5] | Binding using WaterLOGSY (800 μM) ([1]; cyclic peptides at 800 μM) | increase in potency compared to LB8 ([2]; Kd by MST) | binding to tetrameric LDH1 [6] | binding to tetrameric LDH5 [7] | effect on LDH1 stability [8] | effect on LDH5 stability [9] | Molecule |
| --- | --- | --- | --- | --- | --- | --- | --- | --- | --- | --- | --- | --- |
| + (binders) | 2.85 | no effects up to 100 μM | no effect | – | – | – | – | – | – | – | – | CC[C@H](C)[C@H](NC(=O)[C@H](CC(C)C)NC(=O)[C@H](CCCCN)NC(=O)[C@H](CCC(=O)O)NC(=O)[C@H](CCCCN)NC(=O)[C@H](CC(C)C)NC(=O)[C@@H](NC(=O)[C@H](C)N)[C@@H](C)O)C(N)=O [LB8, ATLKEKLI] (H-ATLKEKLI-NH2; N-terminus assumed) |
| + (binders) | – | – | – | positive signal | no interaction | – | – | – | – | – | – | CC[C@H](C)[C@H](NC(=O)[C@H](CC(C)C)NC(=O)[C@H](CCCCN)NC(=O)[C@H](CCC(=O)O)NC(=O)[C@H](CCCCN)NC(=O)[C@H](CC(C)C)NC(=O)[C@@H](NC(=O)[C@H](C)N)[C@@H](C)O)C(=O)N[C@@H](C)C(=O)N1CCC[C@H]1C(=O)N[C@H](C(=O)N[C@@H](C)C(=O)N[C@@H](CCC(=O)O)C(=O)N[C@@H](CCC(=O)O)C(=O)N[C@@H](CCC(=O)O)C(=O)N[C@@H](C)C(=O)N[C@H](C(=O)N[C@H](C(=O)N1CCC[C@H]1C(N)=O)C(C)C)[C@@H](C)O)C(C)C [LB19, ATLKEKLIAPVAEEEATVP] (H-ATLKEKLIAPVAEEEATVP-NH2; N-terminus assumed) |
| – | – | – | significantly interfered | – | – | – | – | did not demonstrated any binding | did not demonstrated any binding | no effect up to 500 μM | no effect up to 500 μM | CC[C@H](C)[C@H](NC(=O)[C@H](CC(C)C)NC(=O)[C@H](CCCCN)NC(=O)[C@@H]1CSCc2cccc(c2)CSC[C@H](N)C(=O)N[C@@H]([C@@H](C)O)C(=O)N[C@@H](CC(C)C)C(=O)N[C@@H](CCCCN)C(=O)N1)C(N)=O [MP1, CTLKCKLI] (H-CTLKCKLI-NH2; linker 1-5 via mXylylene; N-terminus assumed) |

| Molecule | Binding using WaterLOGSY (800 μM) [1, 10] | pKd ([2]; linear peptides, read-out: Kd using MST experiment) | recovery of fluorescence intensity after denaturation (LDH re-association) [3] | LDH5 fluorescence recovery after acidification [4] | NMR WaterLOGSY signal / saturation transfer [1] | Interaction with full length LDH1 / competition with LDHB native arm [5] | Binding using WaterLOGSY (800 μM) ([1]; cyclic peptides at 800 μM) | increase in potency compared to LB8 ([2]; Kd by MST) | binding to tetrameric LDH1 [6] | binding to tetrameric LDH5 [7] | effect on LDH1 stability [8] | effect on LDH5 stability [9] |
| --- | --- | --- | --- | --- | --- | --- | --- | --- | --- | --- | --- | --- |
| CC[C@H](C)[C@H](NC(=O)[C@H](CC(C)C)NC(=O)[C@H](CCCCN)NC(=O)[C@@H]1CSCc2cccc(c2)CSC[C@H](N)C(=O)N[C@@H]([C@@H](C)O)C(=O)N[C@@H](CC(C)C)C(=O)N[C@@H](CCCCN)C(=O)N1)C(N)=O [LT018, CTLKCKLI] (H-CTLKCKLI-NH2; linker 1-5 via mXylylene; N-terminus assumed) | – | – | nicely interfered with the fluorescence recovery at 50 μM | – | intense saturation transfer | not able to compete with LDHB native arm | + (binders) | 30 fold | – | – | – | – |
| Ac-LIAPVAE-NH2 [LBc, LB19 central fragment evaluated as a negative control, reference compound] | − (non-binders) | – | no effect | no effect | not to demonstrate any appreciable saturation transfer | – | – | – | – | – | – | – |
